According to PubChem BioAssay (NCI):
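Compound exposure: 48 hours, 5 concentrations, 96-well plates. TGI is the concentration that stops growth completely.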

Tests used:
Test in all cases: DTP human tumour cell line panel, 48 h
[1] = system: 786-0 renal
[2] = system: A498 renal
[3] = system: A549 NSCLC
[4] = system: ACHN renal
[5] = system: BT-549 breast
[6] = system: CAKI-1 renal
[7] = system: CCRF-CEM leukemia
[8] = system: COLO 205 colon
[9] = system: DU-145 prostate
[10] = system: EKVX NSCLC
[11] = system: HCC-2998 colon
[12] = system: HCT-116 colon
[13] = system: HCT-15 colon
[14] = system: HL-60(TB) leukemia
[15] = system: HOP-62 NSCLC
[16] = system: HOP-92 NSCLC
[17] = system: HS 578T breast
[18] = system: HT29 colon
[19] = system: IGROV1 ovarian
[20] = system: K-562 leukemia
[21] = system: KM12 colon
[22] = system: LOX IMVI melanoma
[23] = system: M14 melanoma
[24] = system: MCF7 breast
[25] = system: MDA-MB-231 breast
[26] = system: MDA-MB-435
[27] = system: MDA-N
[28] = system: MOLT-4 leukemia
[29] = system: NCI-H460 lung
[30] = system: NCI/ADR-RES ovarian
[31] = system: OVCAR-3 ovarian
[32] = system: OVCAR-4 ovarian
[33] = system: OVCAR-5 ovarian
[34] = system: OVCAR-8 ovarian
[35] = system: PC-3 prostate
[36] = system: RPMI-8226 leukemia
[37] = system: SF-268 CNS
[38] = system: SF-295 CNS
[39] = system: SF-539 CNS
[40] = system: SK-MEL-2 melanoma
[41] = system: SK-MEL-28 melanoma
[42] = system: SK-MEL-5 melanoma
[43] = system: SK-OV-3 ovarian
[44] = system: SN12C renal
[45] = system: SNB-19 CNS
[46] = system: SNB-75 CNS
[47] = system: SR leukemia
[48] = system: SW-620 colon
[49] = system: T-47D breast
[50] = system: TK-10 renal
[51] = system: U251 CNS
[52] = system: UACC-257 melanoma
[53] = system: UACC-62 melanoma
[54] = system: UO-31 renal

With `O=C(c1ccccc1)c1ccc(N2C(=O)/C(=C/c3ccccc3S)N=C2c2ccccc2)c(N2C(=O)/C(=C/c3ccccc3S)N=C2c2ccccc2)c1` as the compound, how does the TGI [1] read?
Its TGI is > 100 µM.

What about the TGI [2] of the same compound?
Its TGI is > 100 µM.

What about the TGI [3] of the same compound?
Its TGI is > 100 µM.

And the TGI [4]?
The TGI was > 100 µM.

What about the TGI [5] of the same compound?
The TGI was > 100 µM.

And the TGI [6]?
The TGI was > 100 µM.

And the TGI [7]?
The TGI was > 100 µM.

And the TGI [8]?
The TGI was > 100 µM.

What about the TGI [9] of the same compound?
The TGI was > 100 µM.

What about the TGI [10] of the same compound?
Its TGI is > 100 µM.

What about the TGI [11] of the same compound?
The TGI was > 100 µM.

And the TGI [12]?
The TGI was > 100 µM.

What about the TGI [13] of the same compound?
The TGI was > 100 µM.

What about the TGI [14] of the same compound?
Its TGI is > 100 µM.

And the TGI [15]?
The TGI was > 100 µM.

What about the TGI [16] of the same compound?
The TGI was > 100 µM.

What about the TGI [17] of the same compound?
The TGI was > 100 µM.

What about the TGI [18] of the same compound?
Its TGI is > 100 µM.

And the TGI [19]?
Its TGI is > 100 µM.

What about the TGI [20] of the same compound?
Its TGI is > 100 µM.

And the TGI [21]?
Its TGI is > 100 µM.

What about the TGI [22] of the same compound?
The TGI was 62.9 µM.

And the TGI [23]?
The TGI was > 100 µM.

And the TGI [24]?
Its TGI is > 100 µM.

And the TGI [25]?
The TGI was > 100 µM.

And the TGI [26]?
Its TGI is 46.1 µM.

And the TGI [27]?
The TGI was > 100 µM.

What about the TGI [28] of the same compound?
Its TGI is 56.6 µM.

What about the TGI [29] of the same compound?
The TGI was > 100 µM.

And the TGI [30]?
The TGI was > 100 µM.

And the TGI [31]?
Its TGI is 51.2 µM.

And the TGI [32]?
Its TGI is > 100 µM.

What about the TGI [33] of the same compound?
Its TGI is > 100 µM.

And the TGI [34]?
The TGI was 88.6 µM.

And the TGI [35]?
Its TGI is > 100 µM.

What about the TGI [36] of the same compound?
The TGI was 53.1 µM.

What about the TGI [37] of the same compound?
The TGI was > 100 µM.

What about the TGI [38] of the same compound?
The TGI was > 100 µM.

And the TGI [39]?
Its TGI is 40.3 µM.

What about the TGI [40] of the same compound?
Its TGI is 57.3 µM.

What about the TGI [41] of the same compound?
Its TGI is > 100 µM.

And the TGI [42]?
Its TGI is 87.6 µM.

And the TGI [43]?
The TGI was > 100 µM.

What about the TGI [44] of the same compound?
Its TGI is > 100 µM.

What about the TGI [45] of the same compound?
The TGI was > 100 µM.

What about the TGI [46] of the same compound?
Its TGI is 65.8 µM.

And the TGI [47]?
The TGI was > 100 µM.

What about the TGI [48] of the same compound?
The TGI was > 100 µM.

And the TGI [49]?
Its TGI is > 100 µM.

And the TGI [50]?
The TGI was > 100 µM.

And the TGI [51]?
The TGI was > 100 µM.

What about the TGI [52] of the same compound?
The TGI was > 100 µM.

What about the TGI [53] of the same compound?
Its TGI is > 100 µM.

And the TGI [54]?
The TGI was > 100 µM.
